The source of these data is publication PMC11863921 (BMC Biology, 2025).

“Also recorded” adds a separate entry of the source.

The test system of assay [1] is CHO-K1 cells transfected with an empty pcDNA3.1 + vector. As to the kind of experiment: Luminescence (GFP-aequorin G5A, GqS5) assay in CHO-K1 cells transfected with empty pcDNA3.1 vector. The class given is cell-based, Chinese hamster. To be noted: 10^−14 to 10^−5 M, Fig. 6 G, H. The method, then:
ArubRGP1 and ArubRGP2 were tested as ligands for ArubRXFP/LGR3 (isoform X2; XP_033631990.1) and ArubLGR4 (isoform X3; XP_033635731.1) by co-transfection of CHO-K1 cells stably expressing the green fluorescent protein (GFP) – apoaequorin construct G5A [25] with the chimeric G-protein Gqs5, which is a Gq-type protein modified to incorporate Gs-type sequences that enable it to interact with GPCRs that preferentially couple to Gs-type G-proteins. Synthetic ArubRGP1 or ArubRGP2 were initially tested at a concentration of 10^−5 M, comparing with luminescence measured in transfected cells incubated in basal media without the addition of ArubRGP1 or ArubRGP2. […]
(§1) AruRGP1 and AruRGP2 were tested as ligands for the A. rubens receptors using luminescence-based assays, which have been described previously. […] A FLUOstar Omega Plate Reader (BMG LABTECH; FLUOstar Omega Series multi-mode microplate reader) with injectors was used to sequentially add transfected CHO-K1 cells to each test well of the microtiter plate and luminescence was recorded over a 35-s period. Luminescence data were integrated over the 35 s measurement period and the mean of the triplicate measurements was calculated. Responses were normalized to the maximum response obtained in each experiment (100% activation) and to luminescence measured with the vehicle media (0% activation) (Additional file 19: Dataset S12). […]

For assay [2], the system named is ArubLGR4. As to the kind of experiment: Luminescence (GFP-aequorin G5A, GqS5) assay in CHO-K1 cells transfected with ArubLGR4. The class given is cell-based, A. rubens. Conditions: for luminescence versus basal media: 10^−5 M; for luminescence response: 10^−14 to 10^−5 M, Fig. 6 E, F. On the procedure: (§2) ArubRGP1 and ArubRGP2 were tested as ligands for ArubRXFP/LGR3 (isoform X2; XP_033631990.1) and ArubLGR4 (isoform X3; XP_033635731.1) by co-transfection of CHO-K1 cells stably expressing the green fluorescent protein (GFP) – apoaequorin construct G5A [25] with the chimeric G-protein Gqs5, which is a Gq-type protein modified to incorporate Gs-type sequences that enable it to interact with GPCRs that preferentially couple to Gs-type G-proteins. Synthetic ArubRGP1 or ArubRGP2 were initially tested at a concentration of 10^−5 M, comparing with luminescence measured in transfected cells incubated in basal media without the addition of ArubRGP1 or ArubRGP2.
A. rubens RGP1 and RGP2 (ArubRGP1, ArubRGP2) were custom synthesized with a purity of > 95%, as reported previously. Two genes encoding relaxin receptor-related proteins were identified in A. rubens and, informed by phylogenetic analysis, these were named ArubRXFP/LGR3 and ArubLGR4. Then cDNAs encoding these proteins were custom synthesized with the inclusion of a 5′ partial Kozak translation initiation sequence (GCCACC) and incorporated into the mammalian expression vector pcDNA 3.1( +) (Genscript, Hong Kong) (Additional file 18: Dataset S11). Likewise, a cDNA encoding an N-terminally modified form of ArubRXFP/LGR3 incorporating an N-terminal signal peptide from the bovine prolactin precursor was also synthesized (with codon optimization for mammalian expression) (Genewiz, Takeley, UK) and this is referred to henceforth as ArubRXFP/LGR3(modified) (Additional file 18: Dataset S11). Chinese hamster ovary cells (CHO-K1) stably expressing the calcium-sensitive aequorin fusion protein G5A were used as an expression system. This cell line was supplied by Prof. Gaspar Jékely (University of Heidelberg, Germany) and tested negative for mycoplasma contamination using a MycoAlert PLUS kit (Lonza, Switzerland). […]
as §1

For assay [3], the system named is modified ArubRXFP/LGR3. As to the kind of experiment: Luminescence (GFP-aequorin G5A, GqS5) assay in CHO-K1 cells transfected with modified ArubRXFP/LGR3. Conditions: Fig. 6 C, D. The class given is cell-based, A. rubens.
From the text: Thus, modified ArubRXFP/LGR3 was similar in this respect to the modified AsolRXFP/LGR3 protein (Fig. 5).
A. rubens RGP1 and RGP2 (ArubRGP1, ArubRGP2) were custom synthesized with a purity of > 95%, as reported previously. Two genes encoding relaxin receptor-related proteins were identified in A. rubens and, informed by phylogenetic analysis, these were named ArubRXFP/LGR3 and ArubLGR4. Then cDNAs encoding these proteins were custom synthesized with the inclusion of a 5′ partial Kozak translation initiation sequence (GCCACC) and incorporated into the mammalian expression vector pcDNA 3.1( +) (Genscript, Hong Kong) (Additional file 18: Dataset S11). […]
as §1

For assay [4], the system named is ArubRXFP/LGR3. As to the kind of experiment: Luminescence (GFP-aequorin G5A, GqS5) assay in CHO-K1 cells transfected with ArubRXFP/LGR3. The class given is cell-based, A. rubens. Conditions: for luminescence response at 10^−5 M versus background: basal media as background; for EC50: 10^−14 to 10^−5 M, 35 s, three independent transfections, four-parameter fit, read-out: EC50 for induced luminescence; for luminescence response versus BSA control: 10–5 M, 30 s, one-way ANOVA with Bonferroni (***p < 0.001, *p < 0.1), Fig. S6; for dose-dependent triggering of luminescence: Fig. 6 A, B. The method, then: as §2
A. rubens RGP1 and RGP2 (ArubRGP1, ArubRGP2) were custom synthesized with a purity of > 95%, as reported previously. Two genes encoding relaxin receptor-related proteins were identified in A. rubens and, informed by phylogenetic analysis, these were named ArubRXFP/LGR3 and ArubLGR4. Then cDNAs encoding these proteins were custom synthesized with the inclusion of a 5′ partial Kozak translation initiation sequence (GCCACC) and incorporated into the mammalian expression vector pcDNA 3.1( +) (Genscript, Hong Kong) (Additional file 18: Dataset S11). Likewise, a cDNA encoding an N-terminally modified form of ArubRXFP/LGR3 incorporating an N-terminal signal peptide from the bovine prolactin precursor was also synthesized (with codon optimization for mammalian expression) (Genewiz, Takeley, UK) and this is referred to henceforth as ArubRXFP/LGR3(modified) (Additional file 18: Dataset S11). Chinese hamster ovary cells (CHO-K1) stably expressing the calcium-sensitive aequorin fusion protein G5A were used as an expression system. This cell line was supplied by Prof. Gaspar Jékely (University of Heidelberg, Germany) and tested negative for mycoplasma contamination using a MycoAlert PLUS kit (Lonza, Switzerland). The CHO-K1 cells were cultured in a culture medium comprising DMEM/F12, 10% fetal bovine serum, antibiotic–antimycotic, and […] Geneticin G418 sulfate (all purchased from Thermo Fisher scientific, Oxford, UK; cat no. 11039047, 10,082,147, 15,240,062, and 10,131,035, respectively.) When the cells reached 80% confluency, they were co-transfected with plasmids containing cDNAs encoding ArubRXFP/LGR3, ArubRXFP/LGR3(modified), or ArubLGR4 and a plasmid encoding the chimeric G-protein GqS5 (Addgene, Watertown USA), which enables GPCRs that preferentially couple to Gq-type or Gs-type proteins to signal via the phospholipase-C signaling pathway.
AruRGP1 and AruRGP2 were tested as ligands for the A. rubens receptors using luminescence-based assays, which have been described previously. Thus, 48 h after transfection, cells were detached by using PBS buffer (pH7.4; Thermofisher Scientific, Oxford, UK; cat no.10010023) supplemented with a final concentration of 5 mM EDTA pH8.0 (Thermo Fisher Scientific, Oxford, UK; cat no.15575020). Cells were then washed with DMEM/F12 buffer and then incubated with […] coelenterazine-H (Thermo Fisher Scientific, Oxford, UK; cat no. C6780) at room temperature with stirring for 3 h. ArubRGP1 or ArubRGP2 were prepared at concentrations ranging from 10^−14 to 10^−5 M and then were pipetted into 96-well plates (Costar Assay microplate, REF: 3903 or Falcon 96 well microplate, Code: 353,377). A FLUOstar Omega Plate Reader (BMG LABTECH; FLUOstar Omega Series multi-mode microplate reader) with injectors was used to sequentially add transfected CHO-K1 cells to each test well of the microtiter plate and luminescence was recorded over a 35-s period. Luminescence data were integrated over the 35 s measurement period and the mean of the triplicate measurements was calculated. Responses were normalized to the maximum response obtained in each experiment (100% activation) and to luminescence measured with the vehicle media (0% activation) (Additional file 19: Dataset S12). […]

Assay [5] has as its target Asterias rubens relaxin family peptide receptor/leucine-rich repeat G protein-coupled receptor 3 (isoform X2) (Asterias rubens).
Assay [6] has the same target. The source holds these as a separate data set.
Assay [7] has as its target modified ArubRXFP/LGR3 (N-terminal region with the predicted internal signal peptide replaced by the prolactin precursor signal peptide) (Asterias rubens).
The target in assay [8] is Acanthaster cf. solaris relaxin family peptide receptor/leucine-rich repeat G protein-coupled receptor 3, N-terminally modified (prolactin signal peptide, FLAG tag) (Acanthaster cf. solaris).

The EC50 is the concentration giving half of the maximal effect.

With “Asterias rubens Relaxin-like gonad-stimulating peptide 1 [ArubRGP1]”, in assay [1], the “luminescence response” value was “no response; also recorded: do not trigger luminescence”. Besides, in assay [2], the “luminescence versus basal media” value is given as “not significantly different” and the “luminescence response” value was “no response; also recorded: do not trigger luminescence”. Further, the “dose-dependent triggering of luminescence” value (“dose-dependent triggering” below) in assay [3] is given as “trigger dose-dependent luminescence”. In assay [4], the “luminescence response at 10^−5 M versus background” value is recorded as “approximately twice the background luminescence”, the EC50 amounted to 0.0225 µM, the “luminescence response versus BSA control” value is recorded as “significantly higher” and the “dose-dependent triggering” value is recorded as “trigger dose-dependent luminescence”.

With “Asterias rubens relaxin-like gonad-stimulating peptide 1 (ligand)”, the EC50 of peptide-induced luminescence (GFP-apoaequorin G5A, chimeric G-protein GqS5) in CHO-K1 cells transfected with ArubRXFP/LGR3, 10^-14 to 10^-5 M in assay [5] worked out at 0.0225 µM. Moreover, in assay [6], the EC50 of peptide-induced luminescence (GFP-apoaequorin G5A, chimeric G-protein GqS5) in CHO-K1 cells transfected with ArubRXFP/LGR3 was found to be 0.025 µM. Further, in assay [7], the EC50 of peptide-induced luminescence (GFP-apoaequorin G5A, chimeric G-protein GqS5) in CHO-K1 cells transfected with modified ArubRXFP/LGR3 was 0.11 µM.

In the case of “Asterias rubens Relaxin-like gonad-stimulating peptide 2 [ArubRGP2]”, in assay [1], the “luminescence response” value was “no response; also recorded: do not trigger luminescence”. Besides, in assay [2], the “luminescence versus basal media” value is given as “not significantly different” and the “luminescence response” value is “no response; also recorded: do not trigger luminescence”. Moreover, in assay [3], the “dose-dependent triggering” value is given as “trigger dose-dependent luminescence”. Also, in assay [4], the “luminescence response at 10^−5 M versus background” value was “approximately twice the background luminescence”, the EC50 stood at 0.383 µM, the “luminescence response versus BSA control” value is listed as “significantly higher” and the “dose-dependent triggering” value is on record as “trigger dose-dependent luminescence”.

In turn, “Acanthaster cf. solaris relaxin-like gonad-stimulating peptide 2 (ligand)” returned a percentage of forskolin-induced cAMP levels (CRE reporter) in CHO-AsolRXFP/LGR3 cells at 10 µM AsolRGP2; no dose-response curve could be fitted (% forskolin response) in assay [8] of 12.2.
